Results: patent publication US20220056019A1, “FARNESOID X RECEPTOR AGONISTS AND USES THEREOF” (Metacrine, Inc., priority 2018, published 2022)

target: T1, hFXR (Homo sapiens, UniProt Q96RI1); assay: In Vitro FXR Assay (TK): TK-ECRE-luc reporter in transfected CV-1 cells; assay type: cell-based; settings: 18 hrs incubation, luminescence
T1 construct: expressed in transfected cells; host or cells: CV-1 cells
T1 sequence (Q96RI1 1-486): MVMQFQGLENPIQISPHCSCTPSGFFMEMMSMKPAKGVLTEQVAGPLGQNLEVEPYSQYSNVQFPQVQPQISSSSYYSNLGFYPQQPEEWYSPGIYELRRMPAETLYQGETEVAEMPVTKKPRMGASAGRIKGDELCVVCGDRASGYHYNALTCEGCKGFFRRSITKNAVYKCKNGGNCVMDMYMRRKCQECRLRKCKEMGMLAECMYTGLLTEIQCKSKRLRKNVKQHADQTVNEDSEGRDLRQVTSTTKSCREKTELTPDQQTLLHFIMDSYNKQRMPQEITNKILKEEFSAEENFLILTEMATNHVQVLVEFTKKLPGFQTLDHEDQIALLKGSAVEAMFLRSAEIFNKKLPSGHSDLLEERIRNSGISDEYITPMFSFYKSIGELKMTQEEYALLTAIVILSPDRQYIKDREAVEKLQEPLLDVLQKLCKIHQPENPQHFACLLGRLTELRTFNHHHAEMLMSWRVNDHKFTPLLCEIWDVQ
T1 sequence (P19793 1-462 partner): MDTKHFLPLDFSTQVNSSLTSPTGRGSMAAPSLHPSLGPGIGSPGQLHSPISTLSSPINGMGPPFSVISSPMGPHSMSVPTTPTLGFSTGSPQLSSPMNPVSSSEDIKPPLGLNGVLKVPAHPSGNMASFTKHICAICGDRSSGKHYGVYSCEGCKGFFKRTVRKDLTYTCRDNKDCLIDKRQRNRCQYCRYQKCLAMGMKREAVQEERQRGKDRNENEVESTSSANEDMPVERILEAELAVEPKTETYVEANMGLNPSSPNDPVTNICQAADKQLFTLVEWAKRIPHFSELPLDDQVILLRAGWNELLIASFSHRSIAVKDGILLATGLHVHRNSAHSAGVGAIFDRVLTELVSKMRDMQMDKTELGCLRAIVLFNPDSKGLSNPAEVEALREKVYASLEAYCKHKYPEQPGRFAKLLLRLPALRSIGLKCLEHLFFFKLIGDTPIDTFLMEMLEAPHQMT
Protocol: Example B-1: In Vitro FXR Assay (TK)
CV-1 cells were seeded at a density of 2,000,000 cells in a T175 flask with DMEM+10% charcoal double-stripped FBS and incubated at 37° C. in 5% CO2 for 18 h (O/N).
After 18 h of incubation, the medium in the T175 flask was changed with fresh DMEM+10% charcoal super-stripped serum. In a polypropylene tube, 2500 μL OptiMEM (Life Technologies, Cat #31985-062) was combined with expression plasmids for hFXR, hRXR, TK-ECRE-luc and pCMX-YFP. The tube was then briefly vortexed and incubated at room temperature for 5 minutes. Transfection reagent (X-tremeGENE HP from Roche, Cat #06 366 236 001) was added to the OptiMEM/plasmid mixture vortexed and incubated at room temperature for 20 minutes. Following incubation, the transfection reagent/DNA mixture complex was added to cells in the T175 flask and the cells were incubated at 37° C. in 5% CO2 for 18 h (O/N).
Compounds were serially diluted in DMSO and added to transfected CV-1 cells. The cells were then incubated for 18 hrs. The next day cells were lysed and examined for luminescence.

Row | EC50 [nM] | Compound
1 | ≤ 50 | COc1ccc(C23CCC(CN(c4cc(-c5cnn(C6(C)CCC6)c5)ncn4)C(=O)[C@H]4CC[C@H](OC(=O)N5CC(O)C5)CC4)(CC2)CC3)cc1C [Compound 25.26, 4-(((4-(4-Methoxy-3-methylphenyl)bicyclo[2.2.2]octan-1-yl)methyl)(6-(1-(1-methylcyclobutyl)-1H-pyrazol-4-yl)pyrimidin-4-yl)carbamoyl)cyclohexyl trans-3-hydroxyazetidine-1-carboxylate]
2 | ≤ 50 | COc1ccc(C23CCC(CN(c4cc(-c5cnn(C(C)C)c5)ccn4)C(=O)[C@H]4CC[C@H](OC(=O)N5CC(OCCO)C5)CC4)(CC2)CC3)cc1C [Compound 4.10, 4-((4-(1-Isopropyl-1H-pyrazol-4-yl)pyridin-2-yl)((4-(4-methoxy-3-methylphenyl)bicyclo [2.2.2]octan-1-yl)methyl)carbamoyl)cyclohexyl 3-(2-hydroxyethoxy) azetidine- trans-1-carboxylate]
3 | 50 to 1000 | COc1ccc([C@H]2CC[C@H](CN(c3cccc(-c4cnn(C(C)C)c4)c3)C(=O)[C@H]3CC[C@H](NC(=O)OC4CN(C)C4)CC3)CC2)cc1C [Compound 6.07, 1-Methylazetidin-3-yl (trans-4-((3-(1-isopropyl-1H-pyrazol-4-yl)phenyl)((trans-4-(4-methoxy-3-methylphenyl)cyclohexyl)meth-yl)carbamoyl)cyclohexyl)carbamate]
4 | ≤ 50 | COc1ccc(C23CCC(CN(c4cc(-c5cnn(C(C)C)c5)ccn4)C(=O)[C@H]4CC[C@H](OC(=O)NCC(C)(C)O)CC4)(CC2)CC3)cc1C [Compound 4.06, 4-((4-(1-Isopropyl-1H-pyrazol-4-yl)pyridin-2-yl)((4-(4-methoxy-3-methylphenyl)bicyclo [2.2.2]octan-1-yl)methyl)carbamoyl)cyclohexyl (2-hydroxy-2-methylpropyl)trans-carbamate]
5 | ≤ 50 | COc1ccc([C@H]2CC[C@H](CN(c3cc(-c4cnc(C5CC5)s4)ccn3)C(=O)[C@H]3CC[C@H](OC(=O)N4CCN(C)CC4)CC3)CC2)cc1Cl [Compound 2.08, trans-4-(((trans-4-(3-Chloro-4-methoxyphenyl)cyclohexyl)methyl)(4-(2-cyclopropylthiazol-5-yl)pyridin-2-yl)carbamoyl)cyclohexyl 4-methylpiperazine-1-carboxylate]
6 | 50 to 1000 | COc1ncc([C@H]2CC[C@H](CN(c3cc(-c4cnn(C(C)C)c4)ccn3)C(=O)[C@H]3CC[C@H](OC(=O)N4CCN(C)CC4)CC3)CC2)cc1C [Compound 1.05, trans-4-((4-(1-Isopropyl-1H-pyrazol-4-yl)pyridin-2-yl)(((trans)-4-(6-methoxy-5-methylpyridin-3-yl)cyclohexyl)methyl)carbamoyl) cyclohexyl 4-methylpiperazine-1-carboxylate]
7 | ≤ 50 | COCCN(C)C(=O)O[C@H]1CC[C@H](C(=O)N(CC23CCC(c4ccc(OC)c(C)c4)(CC2)CC3)c2cc(-c3cnn(C(C)C)c3)ccn2)CC1 [Compound 4.56, 4-((4-(1-Isopropyl-1H-pyrazol-4-yl)pyridin-2-yl) ((4-(4-methoxy-3-methylphenyl)bicyclo [2.2.2]octan-1-yl)methyl)carbamoyl)cyclohexyl (2-methoxyethyl)(methyl) trans-carbamate]
8 | ≤ 50 | COc1ccc(C23CCC(CN(c4cc(-c5coc(C(C)C)n5)ccn4)C(=O)[C@H]4CC[C@H](OC(=O)NCCC(C)(C)O)CC4)(CC2)CC3)cc1C [Compound 23.06, 4-((4-(2-Isopropyloxazol-4-yl)pyridin-2-yl)((4-(4-methoxy-3-methylphenyl)bicyclo[2.2.2]octan-1-yl)methyl)carbamoyl)(trans-cyclohexyl)(3-hydroxy-3-methylbutyl)carbamate]
9 | ≤ 50 | COCCOC(=O)N[C@H]1CC[C@H](C(=O)N(CC23CCC(c4ccc(OC)c(C)c4)(CC2)CC3)c2cc(-c3cnn(C(C)C)c3)ccn2)CC1 [Compound 7.01, (trans)-2-Methoxyethyl (4-((4-(1-isopropyl-1H-pyrazol-4-yl)pyridin-2-yl)((4-(4-methoxy-3-methylphenyl)bicyclo[2.2.2]octan-1-yl)methyl)carbamoyl)cyclohexyl) carbamate]
10 | ≤ 50 | COc1ccc(C23CCC(CN(c4cc(-c5cnn(C(C)C)c5)c(Cl)cn4)C(=O)[C@H]4CC[C@H](OC(=O)N5CC(O)C5)CC4)(CC2)CC3)cc1C [Compound 26.01, 4-((5-Chloro-4-(1-isopropyl-1H-pyrazol-4-yl)pyridin-2-yl)((4-(4-methoxy-3-methylphenyl)bicyclo[2.2.2]octan-1-yl)methyl)carbamoyl)(trans-cyclohexyl) 3-hydroxyazetidine-1-carboxylate]
11 | ≤ 50 | COc1ccc([C@H]2CC[C@H](CN(c3cccc(-c4cnn(C(C)C)c4)c3)C(=O)[C@H]3CC[C@H](OC(=O)N4CCN(C)CC4)CC3)CC2)cc1C [Compound 5.11, trans-4-((3-(1-Isopropyl-1H-pyrazol-4-yl)phenyl)((trans-4-(4-methoxy-3-methylphenyl)cyclohexyl)methyl)carbamoyl)cyclohexyl 4-methylpiperazine-1-carboxylate]
12 | ≤ 50 | COc1ccc([C@H]2CC[C@H](CN(c3cc(-c4cnn(C(C)C)c4)ccn3)C(=O)[C@H]3CC[C@H](OC(=O)NC[C@@H](F)CF)CC3)CC2)cc1C [Compound 2.32, trans-4-((4-(1-Isopropyl-1H-pyrazol-4-yl)pyridin-2-yl)(((trans)-4-(4-methoxy-3-methylphenyl)cyclohexyl)methyl)carbamoyl) cyclohexyl((R)-2,3-difluoropropyl)carbamate]
13 | ≤ 50 | COc1ccc(C23CCC(CN(c4cc(-c5cnn(C6(C)CCC6)c5)ccn4)C(=O)[C@H]4CC[C@H](OC(=O)N5CC(O)C5)CC4)(CC2)CC3)cc1C [Compound 24, 4-(((4-(4-Methoxy-3-methylphenyl)bicyclo[2.2.2]octan-1-yl)methyl)(4-(1-(1-methylcyclobutyl)-1H-pyrazol-4-yl)pyridin-2-yl)carbamoyl)cyclohexyl trans-3-hydroxyazetidine-1-carboxylate]
14 | ≤ 50 | COc1ccc(C23CCC(CN(c4cc(-c5cnc(C(C)C)s5)ccn4)C(=O)[C@H]4CC[C@H](OC(=O)NCCCO)CC4)(CC2)CC3)cc1C [Compound 4.33, 4-((4-(2-Isopropylthiazol-5-yl)pyridin-2-yl)((4-(4-methoxy-3-methylphenyl)bicyclo[2.2.2]octan-1-yl)methyl)carbamoyl)(trans-cyclohexyl) (3-hydroxypropyl)carbamate]
15 | ≤ 50 | COc1ccc(C23CCC(CN(c4cc(-c5cnn(C(C)C)c5)ccn4)C(=O)[C@H]4CC[C@H](OC(=O)NC(C)(C)CO)CC4)(CC2)CC3)cc1C [Compound 4.46, 4-((4-(1-Isopropyl-1H-pyrazol-4-yl)pyridin-2-yl) ((4-(4-methoxy-3-methylphenyl)bicyclo [2.2.2]octan-1-yl)methyl)carbamoyl)cyclohexyl trans-(1-hydroxy-2-methylpropan-2-yl) carbamate]
16 | ≤ 50 | COc1ccc(C23CCC(CN(c4cc(-c5coc(C6CC6)n5)ccn4)C(=O)[C@H]4CC[C@H](NC(C)=O)CC4)(CC2)CC3)cc1C [Compound 9.09, (trans)-4-Acetamido-N-(4-(2-cyclopropyloxazol-4-yl)pyridin-2-yl)-N-((4-(4-methoxy-3-methylphenyl)bicyclo[2.2.2]octan-1-yl)methyl)cyclohexanecarboxamide]
17 | ≤ 50 | COc1ccc(C23CCC(CN(c4cc(-c5cnn(C(C)C)c5)ccn4)C(=O)[C@H]4CC[C@H](OC(=O)N5CCC5)CC4)(CC2)CC3)cc1C [Compound 4.52, 4-((4-(1-Isopropyl-1H-pyrazol-4-yl)pyridin-2-yl) ((4-(4-methoxy-3-methylphenyl)bicyclo [2.2.2]octan-1-yl)methyl)carbamoyl)cyclohexyl trans-azetidine-1-carboxylate]
